The source made the active and inactive calls. No cut-off for these calls is given here.
Key:
[1] = biological target: Vitamin D3 receptor (Homo sapiens) (UniProt P11473); test: Agonist activity at VDR (unknown origin) transfected in african green monkey COS7 cells assessed transactivation incubated at 1 uM for 16 hrs by luciferase assay; assay type: cell-based
[2] = biological target: Nuclear receptor ROR-alpha (Homo sapiens) (UniProt P35398); test: Agonist activity at RORalpha (unknown origin) transfected in african green monkey COS7 cells assessed transactivation incubated at 1 uM for 16 hrs by luciferase assay; assay type: cell-based
[3] = biological target: Nuclear receptor ROR-beta (Homo sapiens) (UniProt Q92753); test: Agonist activity at RORbeta (unknown origin) transfected in african green monkey COS7 cells assessed transactivation incubated at 1 uM for 16 hrs by luciferase assay; assay type: cell-based
[4] = biological target: Oxysterols receptor LXR-alpha (Homo sapiens) (UniProt Q13133); test: Agonist activity at LXRalpha (unknown origin) transfected in african green monkey COS7 cells assessed transactivation incubated at 1 uM for 16 hrs by luciferase assay; assay type: cell-based
[5] = biological target: Peroxisome proliferator-activated receptor alpha (Homo sapiens) (UniProt Q07869); test: Binding affinity to PPARalpha LBD (unknown origin) assessed as thermal stability by measuring change in melting temperature by thermal shift assay; conditions: filed as agonist, dose 0.625-10 µM
[6] = Stability in human liver microsome assessed as half life at 1 uM by LC/MS-8050 analysis; assay type: ADME; conditions: liver microsomes
[7] = Stability in human liver microsome assessed as intrinsic clearance at 1 uM for 0 to 45 mins by LC/MS-8050 analysis; assay type: ADME; conditions: liver microsomes, time 0-45 min, read-out: CLH
[8] = AUC in fasted Sprague-Dawley rat at 2 mg/kg, IV measured at 0.083 to 24 hrs by LC-MS/MS analysis; assay type: ADME, organism-based; parameters: dose 2 mg/kg, time upper 24 hrs, time lower 0.083 hrs, route iv; conditions: in vivo
[9] = AUC in fasted Sprague-Dawley rat at 10 mg/kg, po measured at 0.083 to 24 hrs by LC-MS/MS analysis; assay type: ADME, organism-based; parameters: time lower 0.083 hrs, dose 10 mg/kg, time upper 24 hrs, route po; conditions: in vivo
[10] = Oral bioavailability in fasted Sprague-Dawley rat at 10 mg/kg measured at 0.083 to 24 hrs by LC-MS/MS analysis; assay type: ADME, organism-based; conditions: in vivo, time 0.083-24 hrs
[11] = biological target: Voltage-gated inwardly rectifying potassium channel KCNH2 (Homo sapiens, UniProt Q12809); test: Inhibition of human ERG by whole cell patch clamp method; assay type: toxicity
[12] = Acute toxicity in mouse assessed as lethal dose administered orally for 14 days; conditions: in vivo, po, 336 h, time 14 day
[13] = Acute toxicity in mouse assessed as mortality administered orally for 14 days; conditions: in vivo, po, 336 h, time 14 day
[14] = In vivo upregulation of PPAR alpha in C57BL/6JNifdc mouse liver administered at 0.03 mg/kg, po for 3 days measured after 6 hrs of last administration by real-time PCR analysis; assay type: ADME, organism-based; conditions: 78 h, time 3.25 day
[15] = Down-streaming of Cyp7a1 gene expression in C57BL/6JNifdc mouse liver assessed as hepatic resorption of bile acid administered at 0.03 to 0.1 mg/kg, po for 3 days measured after 6 hrs of last administration by real-time PCR analysis; assay type: ADME, organism-based; conditions: in vivo, 78 h, dose 0.03-0.1 mg/kg, time 3.25 day
[16] = Down-streaming of Cyp27a1 gene expression in C57BL/6JNifdc mouse liver assessed as hepatic resorption of bile acid administered at 0.03 to 0.1 mg/kg, po for 3 days measured after 6 hrs of last administration by real-time PCR analysis; assay type: ADME, organism-based; conditions: in vivo, 78 h, dose 0.03-0.1 mg/kg, time 3.25 day
[17] = Down-streaming of NTCP gene expression in C57BL/6JNifdc mouse liver assessed as hepatic resorption of bile acid administered at 0.03 to 0.1 mg/kg, po for 3 days measured after 6 hrs of last administration by real-time PCR analysis; assay type: ADME, organism-based; conditions: in vivo, 78 h, dose 0.03-0.1 mg/kg, time 3.25 day
[18] = Upregulation of Mdr2 gene expression in C57BL/6JNifdc mouse liver assessed as increased efflux of bile acid administered at 0.03 to 0.1 mg/kg, po for 3 days measured after 6 hrs of last administration by real-time PCR analysis; assay type: ADME, organism-based; conditions: in vivo, 78 h, dose 0.03-0.1 mg/kg, time 3.25 day
[19] = Anti-cholestatic activity in ANIT-induced C57BL/6Nifdc mouse model assessed as decrease in serum aspartate aminotransferase at 0.03 to 0.1 mg/kg, po upto 42 hrs measured after 48 hrs; assay type: ADME, organism-based; conditions: in vivo, 90 h, dose 0.03-0.1 mg/kg
[20] = Anti-cholestatic activity in ANIT-induced C57BL/6Nifdc mouse model assessed as decrease in liver alkaline phosphatase at 0.03 to 0.1 mg/kg, po upto 42 hrs measured after 48 hrs; assay type: ADME, organism-based; conditions: in vivo, 90 h, dose 0.03-0.1 mg/kg
[21] = Anti-cholestatic activity in ANIT-induced C57BL/6Nifdc mouse model assessed as decrease in serum TBA at 0.03 to 0.1 mg/kg, po upto 42 hrs measured after 48 hrs; assay type: ADME, organism-based; conditions: in vivo, 90 h, dose 0.03-0.1 mg/kg
[22] = Anti-cholestatic activity in ANIT-induced C57BL/6Nifdc mouse model assessed as decrease in liver TBA at 0.03 to 0.1 mg/kg, po upto 42 hrs measured after 48 hrs; assay type: ADME, organism-based; conditions: in vivo, 90 h, dose 0.03-0.1 mg/kg
[23] = Anti-cholestatic activity in ANIT-induced C57BL/6Nifdc mouse model assessed as decrease in liver GCA at 0.03 to 0.1 mg/kg, po upto 42 hrs measured after 48 hrs; assay type: ADME, organism-based; conditions: in vivo, 90 h, dose 0.03-0.1 mg/kg
[24] = Anti-cholestatic activity in ANIT-induced C57BL/6Nifdc mouse model assessed as decrease in phosphorylated p65 level at 0.03 to 0.1 mg/kg, po upto 42 hrs measured after 48 hrs by Western blot analysis; assay type: ADME, organism-based; conditions: in vivo, 90 h, dose 0.03-0.1 mg/kg
[25] = Anti-cholestatic activity in ANIT-induced C57BL/6Nifdc mouse model assessed as decrease in liver DHLCA at 0.03 to 0.1 mg/kg, po upto 42 hrs measured after 48 hrs; assay type: ADME, organism-based; conditions: in vivo, 90 h, dose 0.03-0.1 mg/kg
[26] = Anti-cholestatic activity in ANIT-induced C57BL/6Nifdc mouse model assessed as decrease in liver 3-DHCA at 0.03 to 0.1 mg/kg, po upto 42 hrs measured after 48 hrs; assay type: ADME, organism-based; conditions: in vivo, 90 h, dose 0.03-0.1 mg/kg
[27] = Anti-cholestatic activity in ANIT-induced C57BL/6Nifdc mouse model assessed as decrease in liver HCA at 0.03 to 0.1 mg/kg, po upto 42 hrs measured after 48 hrs; assay type: ADME, organism-based; conditions: in vivo, 90 h, dose 0.03-0.1 mg/kg
[28] = Anti-fibrosis activity in Ccl4-induced C57BL/6Nifdc mouse model assessed as decrease in serum triglyceride level administered at 0.03 to 0.1 mg/kg,po for 3 weeks; assay type: ADME, organism-based; conditions: in vivo, 504 h, dose 0.03-0.1 mg/kg
[29] = Anti-fibrosis activity in Ccl4-induced C57BL/6Nifdc mouse model assessed as reversal of increased Col1a1 administered orally for 3 weeks by Western blot analysis; assay type: ADME; conditions: in vivo, po, 504 h, dose 0.03-0.1 mg/kg
[30] = Anti-fibrosis activity in Ccl4-induced C57BL/6Nifdc mouse model assessed as decrease in inflammatory cells administered orally for 3 weeks; assay type: ADME, cell-based; conditions: in vivo, po, 504 h, dose 0.03-0.1 mg/kg
[31] = In vivo upregulation of PPAR delta in C57BL/6JNifdc mouse liver administered orally for 3 days measured after 6 hrs of last administration by real-time PCR analysis; assay type: ADME, organism-based; conditions: po, 78 h, dose 0.03-0.1 mg/kg
[32] = Down-streaming of Oatp1 gene expression in C57BL/6JNifdc mouse liver assessed as hepatic resorption of bile acid administered at 0.03 mg/kg, po for 3 days measured after 6 hrs of last administration by real-time PCR analysis; assay type: ADME, organism-based; conditions: in vivo, 78 h

Oxysterols receptor LXR-alpha (Homo sapiens), sequence (Q13133 whole entry, the tested form may be a part): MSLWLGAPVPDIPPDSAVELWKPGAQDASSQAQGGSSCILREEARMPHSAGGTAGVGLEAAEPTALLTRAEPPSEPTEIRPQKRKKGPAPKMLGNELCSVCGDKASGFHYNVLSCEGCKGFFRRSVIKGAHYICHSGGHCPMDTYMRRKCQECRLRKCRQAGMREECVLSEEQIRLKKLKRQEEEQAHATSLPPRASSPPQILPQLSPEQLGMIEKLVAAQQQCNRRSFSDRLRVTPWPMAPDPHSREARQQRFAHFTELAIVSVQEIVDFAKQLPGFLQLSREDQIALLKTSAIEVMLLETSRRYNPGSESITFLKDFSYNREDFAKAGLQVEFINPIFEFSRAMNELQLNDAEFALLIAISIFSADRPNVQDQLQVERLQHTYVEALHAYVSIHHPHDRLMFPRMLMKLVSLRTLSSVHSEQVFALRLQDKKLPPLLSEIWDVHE
Vitamin D3 receptor (Homo sapiens), sequence (P11473 whole entry): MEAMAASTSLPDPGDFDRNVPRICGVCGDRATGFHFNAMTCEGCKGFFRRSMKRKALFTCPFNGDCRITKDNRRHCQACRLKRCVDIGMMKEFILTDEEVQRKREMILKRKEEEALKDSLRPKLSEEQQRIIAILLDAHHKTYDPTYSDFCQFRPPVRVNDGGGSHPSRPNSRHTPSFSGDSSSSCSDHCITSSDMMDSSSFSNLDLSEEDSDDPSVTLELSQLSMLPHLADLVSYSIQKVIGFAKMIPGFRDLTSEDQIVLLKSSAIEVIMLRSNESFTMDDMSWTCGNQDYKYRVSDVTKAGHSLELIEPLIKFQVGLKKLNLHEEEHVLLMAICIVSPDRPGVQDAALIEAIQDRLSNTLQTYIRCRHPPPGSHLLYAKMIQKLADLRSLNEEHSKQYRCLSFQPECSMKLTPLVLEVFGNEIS
Peroxisome proliferator-activated receptor alpha (Homo sapiens), sequence (Q07869 whole entry, the tested form may be a part): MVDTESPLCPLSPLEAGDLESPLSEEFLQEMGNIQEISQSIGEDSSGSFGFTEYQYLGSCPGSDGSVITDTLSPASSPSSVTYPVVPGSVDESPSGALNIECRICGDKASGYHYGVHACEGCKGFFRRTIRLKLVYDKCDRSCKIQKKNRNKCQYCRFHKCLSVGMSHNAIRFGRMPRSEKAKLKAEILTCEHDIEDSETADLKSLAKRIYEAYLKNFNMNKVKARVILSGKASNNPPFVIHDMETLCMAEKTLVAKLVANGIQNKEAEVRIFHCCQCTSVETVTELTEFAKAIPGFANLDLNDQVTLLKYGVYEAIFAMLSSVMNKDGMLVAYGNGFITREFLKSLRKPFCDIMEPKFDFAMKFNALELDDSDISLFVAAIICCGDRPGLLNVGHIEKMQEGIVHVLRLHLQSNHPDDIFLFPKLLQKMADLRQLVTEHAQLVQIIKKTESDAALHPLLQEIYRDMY
Nuclear receptor ROR-beta (Homo sapiens), sequence (Q92753 whole entry): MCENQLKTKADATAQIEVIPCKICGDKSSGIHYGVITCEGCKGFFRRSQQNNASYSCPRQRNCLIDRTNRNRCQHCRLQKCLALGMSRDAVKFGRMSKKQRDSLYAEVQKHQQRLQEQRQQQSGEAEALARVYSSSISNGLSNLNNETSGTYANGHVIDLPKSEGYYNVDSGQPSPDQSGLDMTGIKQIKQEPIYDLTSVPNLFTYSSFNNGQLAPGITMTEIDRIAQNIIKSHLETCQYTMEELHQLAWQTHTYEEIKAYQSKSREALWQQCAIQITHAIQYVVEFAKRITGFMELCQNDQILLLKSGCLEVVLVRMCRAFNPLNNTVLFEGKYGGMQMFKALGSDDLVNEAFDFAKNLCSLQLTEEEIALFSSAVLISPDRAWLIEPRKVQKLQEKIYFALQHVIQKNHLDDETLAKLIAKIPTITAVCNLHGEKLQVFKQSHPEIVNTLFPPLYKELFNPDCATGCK
Nuclear receptor ROR-alpha (Homo sapiens), sequence (P35398 whole entry): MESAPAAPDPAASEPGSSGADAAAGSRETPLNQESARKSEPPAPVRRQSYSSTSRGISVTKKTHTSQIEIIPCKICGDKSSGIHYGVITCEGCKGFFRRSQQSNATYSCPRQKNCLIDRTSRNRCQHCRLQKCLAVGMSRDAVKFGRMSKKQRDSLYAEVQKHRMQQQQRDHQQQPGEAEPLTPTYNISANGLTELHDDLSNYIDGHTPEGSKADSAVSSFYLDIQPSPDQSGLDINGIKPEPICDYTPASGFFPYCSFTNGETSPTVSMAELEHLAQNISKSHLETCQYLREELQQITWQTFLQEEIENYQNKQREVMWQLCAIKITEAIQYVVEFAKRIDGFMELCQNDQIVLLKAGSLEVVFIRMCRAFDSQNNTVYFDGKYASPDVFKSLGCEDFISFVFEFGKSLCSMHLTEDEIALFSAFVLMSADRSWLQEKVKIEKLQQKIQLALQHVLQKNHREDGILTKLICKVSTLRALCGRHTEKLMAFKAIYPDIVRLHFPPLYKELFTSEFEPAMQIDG
Voltage-gated inwardly rectifying potassium channel KCNH2, sequence (Q12809 whole entry): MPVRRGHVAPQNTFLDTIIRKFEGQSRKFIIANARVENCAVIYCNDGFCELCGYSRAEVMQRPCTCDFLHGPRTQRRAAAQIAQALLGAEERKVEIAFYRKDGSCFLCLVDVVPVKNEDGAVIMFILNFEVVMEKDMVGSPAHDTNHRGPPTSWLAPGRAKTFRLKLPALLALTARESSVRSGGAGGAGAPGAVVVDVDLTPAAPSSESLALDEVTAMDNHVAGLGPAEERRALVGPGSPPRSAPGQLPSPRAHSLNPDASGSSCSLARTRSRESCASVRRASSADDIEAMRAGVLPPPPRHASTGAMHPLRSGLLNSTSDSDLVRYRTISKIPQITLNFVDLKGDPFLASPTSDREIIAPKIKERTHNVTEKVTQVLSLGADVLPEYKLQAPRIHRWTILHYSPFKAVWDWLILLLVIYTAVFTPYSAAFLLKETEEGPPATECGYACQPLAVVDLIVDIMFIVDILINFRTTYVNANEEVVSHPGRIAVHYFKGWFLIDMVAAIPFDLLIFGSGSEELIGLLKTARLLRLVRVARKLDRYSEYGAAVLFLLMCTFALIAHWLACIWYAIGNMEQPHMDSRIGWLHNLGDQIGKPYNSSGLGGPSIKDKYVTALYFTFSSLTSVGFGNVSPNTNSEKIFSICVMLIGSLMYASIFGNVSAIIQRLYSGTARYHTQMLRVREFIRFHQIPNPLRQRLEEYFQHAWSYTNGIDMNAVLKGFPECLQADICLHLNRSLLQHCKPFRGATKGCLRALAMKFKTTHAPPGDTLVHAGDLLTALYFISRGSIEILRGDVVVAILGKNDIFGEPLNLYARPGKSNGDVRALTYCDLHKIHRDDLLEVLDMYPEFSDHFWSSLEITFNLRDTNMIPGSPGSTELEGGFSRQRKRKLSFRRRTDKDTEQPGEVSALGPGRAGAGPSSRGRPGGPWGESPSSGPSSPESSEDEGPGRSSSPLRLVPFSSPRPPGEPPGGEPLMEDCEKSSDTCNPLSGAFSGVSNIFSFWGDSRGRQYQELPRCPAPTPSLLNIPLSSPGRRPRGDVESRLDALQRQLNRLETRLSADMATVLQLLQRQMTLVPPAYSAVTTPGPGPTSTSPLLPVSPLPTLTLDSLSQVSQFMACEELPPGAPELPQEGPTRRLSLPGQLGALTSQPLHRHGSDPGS

Q: Which Activity [1] does the source give for `Cc1cc(CN2C(=O)CN(c3ccc(C(F)(F)F)cc3)C2=O)cc(C)c1OC(C)(C)C(=O)O` here?
A: Its Activity is “inactive”.

Q: What about the Activity [2] of the same compound?
A: The Activity was “inactive”.

Q: And the Activity [3]?
A: The Activity was “inactive”.

Q: And the Activity [4]?
A: The Activity was “inactive”.

Q: And the deltaTm [5]?
A: Its deltaTm is “Dose-Dependent Effect”.

Q: What about the half-life at 1 µM [6] of the same compound?
A: The half-life at 1 µM was greater than 120 min.

Q: What about the CLint scaled at 1 µM [7] of the same compound?
A: The CLint scaled at 1 µM was 6.24 mL/min/kg.

Q: What about the AUC [8] of the same compound?
A: Its AUC is 4250 ng·h/mL.

Q: And the AUC [9]?
A: Its AUC is 22300 ng·h/mL.

Q: And the bioavailability [10]?
A: Its bioavailability is 105%.

Q: What about the IC50 [11] of the same compound?
A: Its IC50 is greater than 30 µM.

Q: What about the LD [12] of the same compound?
A: The LD was greater than 2 g/kg.

Q: And the Activity [13]?
A: Its Activity is “Non-Toxic”.

Q: And the Activity [14]?
A: The Activity was “Active”.

Q: And the Activity [15]?
A: The Activity was “Active”.

Q: And the Activity [16]?
A: The Activity was “Active”.

Q: And the Activity [17]?
A: The Activity was “Active”.

Q: What about the Activity [18] of the same compound?
A: Its Activity is “Active”.

Q: And the Activity [19]?
A: Its Activity is “Active”.

Q: What about the Activity [20] of the same compound?
A: The Activity was “Active”.

Q: And the Activity [21]?
A: Its Activity is “Active”.

Q: What about the Activity [22] of the same compound?
A: The Activity was “Active”.

Q: And the Activity [23]?
A: Its Activity is “Active”.

Q: And the Activity [24]?
A: The Activity was “Active”.

Q: What about the Activity [25] of the same compound?
A: The Activity was “Active”.

Q: What about the Activity [26] of the same compound?
A: Its Activity is “Active”.

Q: What about the Activity [27] of the same compound?
A: Its Activity is “Active”.

Q: And the Activity [28]?
A: Its Activity is “Active”.

Q: What about the Activity [29] of the same compound?
A: The Activity was “Dose-Dependent Effect”.

Q: What about the Activity [30] of the same compound?
A: Its Activity is “Dose-Dependent Effect”.

Q: And the Activity [31]?
A: The Activity was “Dose-Dependent Effect”.

Q: What about the Activity [32] of the same compound?
A: Its Activity is “Active”.

Reference: ChEMBL document CHEMBL5338805, “Discovery of the First Subnanomolar PPARα/δ Dual Agonist for the Treatment of Cholestatic Liver Diseases” (J Med Chem, 2023)
